Measurements reported in publication PMC9576617, “A new LKB1 activator, piericidin analogue S14, retards renal fibrosis through promoting autophagy and mitochondrial homeostasis in renal tubular epithelial cells” (Theranostics, 2022).

Molecular target: T1, LKB1 (Liver kinase B1, STK11) (Homo sapiens, UniProt Q15831)
T1 construct: Recombinant Human LKB1 (CSB-EP624036HU)
T1 sequence (Q15831 1-430): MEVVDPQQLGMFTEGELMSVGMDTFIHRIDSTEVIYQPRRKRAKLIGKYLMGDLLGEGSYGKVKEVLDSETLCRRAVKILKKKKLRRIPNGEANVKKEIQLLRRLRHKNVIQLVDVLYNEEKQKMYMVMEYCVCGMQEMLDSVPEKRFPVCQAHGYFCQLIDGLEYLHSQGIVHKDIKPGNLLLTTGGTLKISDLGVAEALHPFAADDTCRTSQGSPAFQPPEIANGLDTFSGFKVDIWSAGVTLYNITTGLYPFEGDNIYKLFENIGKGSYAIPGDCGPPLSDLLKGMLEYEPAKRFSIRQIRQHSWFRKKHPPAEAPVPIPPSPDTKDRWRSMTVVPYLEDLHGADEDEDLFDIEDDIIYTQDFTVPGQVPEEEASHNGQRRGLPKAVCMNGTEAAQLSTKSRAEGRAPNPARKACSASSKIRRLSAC
Experiment: SPR imaging (PlexArray HT A100), LKB1 immobilized on a 3D Dextran chip, […] fit
Type: binding

## COc1nc(C/C=C(\C)C/C=C/C(C)=C/[C@@H](C)[C@@H](O[C@@H]2O[C@H](CO)[C@@H](O)[C@H](O)[C@H]2O)/C(C)=C/CO)c(C)c(O)c1OC [PA-S14, piericidin analogue S14]
  Kd: 120 nM
